For 21 compounds, GI50 and TGI results are on record in PubChem BioAssay (NCI).

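Briefly, cells in 96-well plates were exposed to five compound concentrations for 48 h, and endpoints were estimated by linear interpolation. At the GI50, growth is halved. Definition used: TGI = concentration required for complete inhibition of growth.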

The test system of the first assay is HOP-92 NSCLC. Nature of the assay: NCI tumour cell line growth inhibition, 48 h.
As to `CC(C)(S)C(N)C(=O)O` (stereo not given), the GI50 was 2960 µM and the TGI was greater than 5000 µM.
The corresponding values for `O=C1c2ccccc2-c2c1c1ccccc1c(=O)n2CCCCl` are 16.8 µM and 43.3 µM.
The corresponding values for `CN1C(=O)/C(=C/c2c(Cl)n(C)c3ccccc23)c2ccccc21` are 1.8 µM and 3.34 µM.
The compound `COc1cc2c(OC)cc1CSCc1sc(C)c(c1Br)CSC2` displayed a TGI greater than 100 µM.
Still for that read-out and setting: under `Cc1cccc(C)c1NC(=O)C(=O)C(C(=O)c1ccccc1-c1ccccc1)C1OC(=O)c2ccccc21` (stereo not given) stands 40 µM.
Take `CCOC(=O)/C=C(/C)Sc1cc(O)c2ccccc2c1O`: the GI50 was 3.21 µM and the TGI came to 11.9 µM.
`COC(=O)[C@H]1C=C[C@@H](C)n2c(=O)c3cc4ccccc4cc3c(=O)n21` showed a TGI greater than 100 µM.
Same read-out and setting: under `Cc1nc2sc3c(c2c(=O)[nH]1)CCCC3` stands greater than 100 µM.
For `C#COc1cccc(Nc2c(C#N)cnc3ncc(NC(=O)CCl)cc23)c1`, the GI50 was greater than 62.5 µM and the TGI is greater than 62.5 µM.
`C/C(CC(=O)Nc1cccc(Cl)c1C)=N\NC(=O)c1ccncc1` returned a TGI greater than 100 µM.
Same read-out and setting: in the case of `Cc1cc(NS(=O)(=O)c2ccc(Nc3c4ccccc4nc4c(C(=O)N5CCN(CCO)CC5)ccc(Cl)c34)cc2)no1` it was greater than 100 µM; in that of `CC(C)C(=O)Nc1nc2c(ncn2C2OC(CO)C(O)C2O)c(=O)[nH]1` (stereo not given), greater than 100 µM; in that of `NCCSc1nc(-c2ccccc2)c(-c2ccccc2)o1`, greater than 100 µM.
On to `O=C1NC(=NCCc2cccc(Cl)c2)S/C1=C\c1ccc2ncccc2c1`, for which the GI50 is greater than 25 µM and the TGI is greater than 25 µM.

The test system of a further assay is CCRF-CEM leukemia. The assay can be described thus: NCI tumour cell line growth inhibition, 48 h.
In turn, `CC(C)C(=O)NS(=O)(=O)c1ccccc1` returned a TGI greater than 100 µM.
Turning to `COC1(OC)CC2C(=O)N(Cc3ccccc3)C1C=C2S(=O)(=O)c1ccccc1` (stereo not given), the TGI is 44.9 µM.
Take `NC(=O)c1cc(S(=O)(=O)Nc2nnc(-c3ccccc3)c(-c3ccccc3)n2)c(SCc2ccccc2)cc1Cl`: the GI50 is greater than 50.4 µM and the TGI was greater than 82.3 µM.
`Cc1cc(C)c(/C=C2\C(=O)Nc3ccc(NC(=O)CCCCCCC(=O)NO)cc32)[nH]1`: the GI50 is 0.311 µM and the TGI was greater than 100 µM.
`C1=C\COCc2cc(ccc2OCCN2CCCC2)Nc2nccc(n2)-c2cccc(c2)COC/1`: the GI50 is 2.56 µM and the TGI stood at 7 µM.
For `CC(=O)[O][Ga]([Br])[O]C(C)=O`, the GI50 was greater than 100 µM and the TGI was greater than 100 µM.
Compound `COc1ccc(-c2coc3c4c(ccc3c2=O)OCO4)cc1OC` gave a TGI greater than 100 µM.
Regarding `CC(C)(S)C(N)C(=O)O` (stereo not given), the GI50 is 612 µM and the TGI was greater than 5000 µM.
For `O=C1c2ccccc2-c2c1c1ccccc1c(=O)n2CCCCl` the same measures were 3.86 µM and greater than 100 µM.
`CN1C(=O)/C(=C/c2c(Cl)n(C)c3ccccc23)c2ccccc21`: the TGI was greater than 100 µM.
As for `COc1cc2c(OC)cc1CSCc1sc(C)c(c1Br)CSC2`, the TGI was greater than 100 µM.
Same read-out and setting: under `Cc1cccc(C)c1NC(=O)C(=O)C(C(=O)c1ccccc1-c1ccccc1)C1OC(=O)c2ccccc21` (stereo not given) stands greater than 100 µM.
For `CCOC(=O)/C=C(/C)Sc1cc(O)c2ccccc2c1O`, the GI50 is 2.73 µM and the TGI came out at 6.83 µM.
As for `COC(=O)[C@H]1C=C[C@@H](C)n2c(=O)c3cc4ccccc4cc3c(=O)n21`, the TGI was greater than 100 µM.
Take `C#COc1cccc(Nc2c(C#N)cnc3ncc(NC(=O)CCl)cc23)c1`: the GI50 is 3.72 µM and the TGI is greater than 62.5 µM.
`C/C(CC(=O)Nc1cccc(Cl)c1C)=N\NC(=O)c1ccncc1` had a TGI greater than 100 µM.
The same measure, in the same setting: in the case of `Cc1cc(NS(=O)(=O)c2ccc(Nc3c4ccccc4nc4c(C(=O)N5CCN(CCO)CC5)ccc(Cl)c34)cc2)no1` it was 74 µM; in that of `CC(C)C(=O)Nc1nc2c(ncn2C2OC(CO)C(O)C2O)c(=O)[nH]1` (stereo not given), greater than 100 µM.
For the compound `O=C1NC(=NCCc2cccc(Cl)c2)S/C1=C\c1ccc2ncccc2c1`, the GI50 is greater than 25 µM and the TGI is greater than 25 µM.

A further assay deals with SK-MEL-2 melanoma. Nature of the assay: NCI tumour cell line growth inhibition, 48 h.
Take `CC(C)C(=O)NS(=O)(=O)c1ccccc1`: the TGI is greater than 100 µM.
As for `NC(=O)c1cc(S(=O)(=O)Nc2nnc(-c3ccccc3)c(-c3ccccc3)n2)c(SCc2ccccc2)cc1Cl`, the GI50 is greater than 43.1 µM and the TGI was greater than 60.7 µM.
The corresponding values for `Cc1cc(C)c(/C=C2\C(=O)Nc3ccc(NC(=O)CCCCCCC(=O)NO)cc32)[nH]1` are 1.89 µM and 49.8 µM.
Regarding `C1=C\COCc2cc(ccc2OCCN2CCCC2)Nc2nccc(n2)-c2cccc(c2)COC/1`, the GI50 is 2.49 µM and the TGI is 5.51 µM.
As for `CC(=O)[O][Ga]([Br])[O]C(C)=O`, the GI50 was greater than 100 µM and the TGI is greater than 100 µM.
Regarding `COc1ccc(-c2coc3c4c(ccc3c2=O)OCO4)cc1OC`, the TGI is greater than 100 µM.
`CC(C)(S)C(N)C(=O)O` (stereo not given): the GI50 was 2390 µM and the TGI is greater than 5000 µM.
For `O=C1c2ccccc2-c2c1c1ccccc1c(=O)n2CCCCl` the same measures were 47.4 µM and greater than 100 µM.
For `CN1C(=O)/C(=C/c2c(Cl)n(C)c3ccccc23)c2ccccc21`, the GI50 was 5 µM.
With `COc1cc2c(OC)cc1CSCc1sc(C)c(c1Br)CSC2`, the TGI was greater than 100 µM.
On the same count and under the same terms, under `Cc1cccc(C)c1NC(=O)C(=O)C(C(=O)c1ccccc1-c1ccccc1)C1OC(=O)c2ccccc21` (stereo not given) stands 35.6 µM; under `COC(=O)[C@H]1C=C[C@@H](C)n2c(=O)c3cc4ccccc4cc3c(=O)n21`, greater than 100 µM.
`Cc1nc2sc3c(c2c(=O)[nH]1)CCCC3` returned a TGI greater than 100 µM.
Turning to `C#COc1cccc(Nc2c(C#N)cnc3ncc(NC(=O)CCl)cc23)c1`, the GI50 is greater than 62.5 µM and the TGI was greater than 62.5 µM.
For `C/C(CC(=O)Nc1cccc(Cl)c1C)=N\NC(=O)c1ccncc1`, the TGI was greater than 100 µM.
